Measured values taken from US6255080A, “Bacteriocins produced by ruminal bacteria” (priority 1998, dated 2001).
Entries after “also recorded” stand apart in the source; their conditions may differ. Each block holds one compound with its values, some of them ahead of it.

What was measured:
[1] = tested on: indicator; test: Effect of detergents on the indicator; format: cell-based
Procedure: Further increases in carbohydrate beyond 2% (w/v) had no further effect on enhancing production in liquid culture. As several bacteriocins are known to be cell associated (Jack et al., 1995), bound activity was assayed for by washing pelleted cells with various detergents (Triton X-100, Tween 80, Tween 20). […] However, both Tween 80 and Tween 20 appeared to have no detrimental efLect on the indicator at levels of up to 1.0% (v/v).

[2] = tested on: indicator strain of B. fibrisolvens; test: Drop (spot) test and diffusion well assay of inhibitory activity; format: cell-based, Butyrivibrio fibrisolvens; settings: spot testing, peptide purified by reverse phase chromatography
Procedure: Isolates found to produce bacteriocin-like activity using the deferred plating technique were tested for the production of bacteriocin-like activity in liquid cultures. Briefly, following overnight growth in L-10 medium, a 1.0 ml sample of the culture was centrifuged to remove the cells, and a 100 μl aliquot dropped onto a sterile petri dish and sterilised by exposure to shortwave ultraviolet light for a five minute period. Bacteriocin-like activity within the uv-sterilized spent culture fluid was assayed using both a drop test and diffusion well assay (Tagg et al., 1976). All steps were carried out under anerobic conditions in a glove box.
The active component was purified by FPLC ([…] System, Pharmacia) using reverse phase chromatography. All steps were carried out at 4° C. Solvents consisted of dH2 O (buffer A) and 2-propanol (buffer B), both of which contained 0.1% trifluoroacetic acid. A 0.5 ml aliquot of the crude bacteriocin preparation containing […] was injected onto a Resource RPC 3.0 ml column (Pharmacia), washed with two column volumes of buffer A, and eluted from the column with a gradient from 100% buffer A to 100% buffer B, at a flow rate of 1.0 ml/minute. The elution was monitored at 206 nm. […]

[3] = tested on: a-chymotrypsin or pronase; test: Protease sensitivity in liquid (spent culture medium or purified bacteriocin), drop test; format: in vitro ADME; settings: purified bacteriocin treated prior to sample preparation
Procedure: Determination of protease sensitivity of bacteriocin-like activity in liquid cultures was carried out as follows: 10 μl of a stock solution (10 mg/ml) of each protease was added to 100 μl of either spent culture medium or the purified bacteriocin, and incubated at 37° C. for 2 hours, after which activity was assessed using a drop test (Tagg et al., 1976). Controls consisted of protease only (1 in 10 dilution) spotted directly onto an overlay containing the indicator organism.
The purity of the peptide was assessed using Triacine-sodium-dodecyl-sulphate-polyacrylamide gel electrophoresis analysis followed by silver staining. […] Protease sensitivity of the isolated bacteriocin was identical to the protease sensitivity of the inhibitor produced in the deferred plate test (see above).

- level with no detrimental effect on the indicator [1]: up to 1.0 % (v/v)
Compound: CCCCCCCC/C=C\CCCCCCCC(=O)OCCOCC(OCCO)C1OCC(OCCO)C1OCCO (centres unmarked) [Tween 80]

Compound: Butyrivibriocin AR10
- inhibitory activity of the purified peptide [2]: inhibitory activity; also recorded: inhibitory to the growth
- effect of a-chymotrypsin treatment on inhibitory activity [3]: completely eliminated inhibitory activity
- effect of pronase treatment on inhibitory activity [3]: completely eliminated inhibitory activity

Compound: Triton X-100
- level very detrimental to the indicator ([1]; detergent): less than 0.1 % (v/v)
